The source made the active and inactive calls. The rule behind the calls is not given here.
Key:
MC-38 [1] = test: Induction of mitochondrial membrane damage in mouse MC38 cells assessed as decrease in JC-1 aggregation by measuring red fluorescence at 8 uM measured after 48 hrs (reference value: 96.70%); format: functional; set-up: scale not given: the % may be the effect or the level left
MC-38 [2] = test: Induction of mitochondrial membrane damage in mouse MC38 cells assessed as increase in JC-1 monomers by measuring green fluorescence at 2 uM measured after 48 hrs (reference value: 3.13%); format: functional
MC-38 [3] = test: Induction of PD-L1 expression in mouse MC38 cells measured after 24 hrs incubation by immunofluorescence staining analysis; format: functional, cell-based; details: dose 1-4 µM
MC-38 [4] = test: Induction of PD-L1 expression in mouse MC38 cells in presence of JQ-1 BRD4 inhibitor at 4 uM measured after 24 hrs incubation by Western blot analysis; format: functional, cell-based
[5] = AUC (0 to infinity) in Sprague-Dawley rat at 20 mg/kg, iv measured upto 12 hrs by LC-MS/MS analysis; format: ADME, organism-based; details: in vivo
[6] = Tmax in Sprague-Dawley rat at 20 mg/kg, iv measured upto 12 hrs by LC-MS/MS analysis; format: ADME, organism-based; details: in vivo
[7] = Volume of distribution at steady state in Sprague-Dawley rat at 20 mg/kg, iv measured upto 12 hrs by LC-MS/MS analysis; format: ADME, organism-based; details: in vivo, read-out: Vdss
[8] = Cmax in Sprague-Dawley rat at 20 mg/kg, iv measured upto 12 hrs by LC-MS/MS analysis; format: ADME, organism-based; details: in vivo
[9] = MRT (0 to t) in Sprague-Dawley rat at 20 mg/kg, po measured upto 12 hrs by LC-MS/MS analysis; format: ADME, organism-based; details: in vivo
[10] = Tmax in Sprague-Dawley rat at 20 mg/kg, po measured upto 12 hrs by LC-MS/MS analysis; format: ADME, organism-based; details: in vivo
MC-38 [11] = test: In vivo antitumor activity against MC38 cells allografted in C57BL/6 mouse assessed as tumor growth inhibition in presence of NP19 PD-L1 inhibitor at 50 mg/kg, po treated 5 days after cell inoculation 19 th day relative to control; format: functional; details: MC-38, 360 h, time 15 day, read-out: TGI
[12] = Toxicity in C57BL/6 mouse allografted with mouse MC38 cells assessed as body weight loss at 50 mg/kg, po treated 5 days after cell inoculation 19 th day; format: organism-based; details: in vivo, 360 h, time 15 day
MC-38 [13] = test: In vivo antitumor activity against mouse MC38 cells allografted in C57BL/6 mouse assessed as apoptosis in tumor in presence of NP19 PD-L1 inhibitor at 50 mg/kg, po treated 5 days after cell inoculation 19 th day relative to control; format: functional, organism-based; details: time 15.0 day
Mus musculus [14] = test: Immunomodulatory effect in C57BL/6 mouse allografted mouse MC38 cells assessed as increase in tumor infiltrating lymphocytes by measuring increase in CD4+ T helper cells in mouse blood at 50 mg/kg, po treated 5 days after cell inoculation 19 th day by flow cytometry analysis (reference value: 0.27%); format: functional; details: time 15 day
Mus musculus [15] = test: Immunomodulatory effect in C57BL/6 mouse allografted mouse MC38 cells assessed as increase in tumor infiltrating lymphocytes by measuring increase in […] in mouse blood at 50 mg/kg, po treated 5 days after cell inoculation 19 th day by flow cytometry analysis (reference value: 0.35%); format: functional; details: time 15 day
Mus musculus [16] = test: Immunomodulatory effect in C57BL/6 mouse allografted mouse MC38 cells assessed as increase in tumor infiltrating lymphocytes by measuring increase in […] in mouse blood in presence of NP19 PD-L1 inhibitor at 50 mg/kg, po treated 5 days after cell inoculation 19 th day by flow cytometry analysis (reference value: 0.35%); format: functional; details: time 15 day
Mus musculus [17] = test: Immunomodulatory effect in C57BL/6 mouse allografted mouse MC38 cells assessed as increase in tumor infiltrating lymphocytes by measuring increase in CD4+ T helper cells in mouse lymph nodes at 50 mg/kg, po treated 5 days after cell inoculation 19 th day by flow cytometry analysis (reference value: 15.5%); format: functional; details: time 15 day
Mus musculus [18] = test: Immunomodulatory effect in C57BL/6 mouse allografted mouse MC38 cells assessed as increase in tumor infiltrating lymphocytes by measuring increase in […] in mouse lymph nodes in presence of NP19 PD-L1 inhibitor at 50 mg/kg, po treated 5 days after cell inoculation 19 th day by flow cytometry analysis (reference value: 20.3%); format: functional; details: time 15 day
Mus musculus [19] = test: Immunomodulatory effect in C57BL/6 mouse allografted mouse MC38 cells assessed as increase in tumor infiltrating lymphocytes by measuring increase in CD4+ T helper cells in mouse spleen in presence of NP19 PD-L1 inhibitor at 50 mg/kg, po treated 5 days after cell inoculation 19 th day by flow cytometry analysis (reference value: 10.8%); format: functional; details: time 15 day
Mus musculus [20] = test: Immunomodulatory effect in C57BL/6 mouse allografted mouse MC38 cells assessed as increase in tumor infiltrating lymphocytes by measuring increase in CD4+ T helper cells in tumor in presence of NP19 PD-L1 inhibitor at 50 mg/kg, po treated 5 days after cell inoculation 19 th day by flow cytometry analysis (reference value: 2.57%); format: functional; details: time 15 day
Mus musculus [21] = test: Immunomodulatory effect in C57BL/6 mouse allografted mouse MC38 cells assessed as increase in tumor infiltrating lymphocytes by measuring increase in CD8+ T […] cells in tumor in presence of NP19 PD-L1 inhibitor at 50 mg/kg, po treated 5 days after cell inoculation 19 th day by flow cytometry analysis (reference value: 2.32%); format: functional; details: time 15 day
Mus musculus [22] = test: Immunomodulatory effect in C57BL/6 mouse allografted with mouse MC38 cells assessed as increase in tumor infiltrating lymphocytes by measuring increase in CD3+ CD4+ cells in presence of NP19 PD-L1 inhibitor at 50 mg/kg, po treated 5 days after cell inoculation 19 th day by flow cytometry analysis; format: functional, organism-based; details: time 15.0 day
MC-38 [23] = test: In vivo antitumor activity against mouse MC38 cells allografted in C57BL/6 mouse assessed as decrease in […] positive cells in tumor at 50 mg/kg, po treated 5 days after cell inoculation 19 th day by immunofluorescence analysis; format: functional, organism-based; details: time 15.0 day
MC-38 [24] = test: In vivo antitumor activity against mouse MC38 cells allografted in C57BL/6 mouse assessed as decrease in […] positive cells in tumor in presence of NP19 PD-L1 inhibitor at 50 mg/kg, po treated 5 days after cell inoculation 19 th day by immunofluorescence analysis; format: functional, organism-based; details: time 15.0 day
[25] = Toxicity in C57BL/6 mouse allografted with mouse MC38 cells assessed as pathological changes in spleen at 50 mg/kg, po treated 5 days after cell inoculation 19 th day by hematoxylin and eosin analysis; format: organism-based; details: in vivo, 360 h, time 15 day
[26] = Toxicity in C57BL/6 mouse allografted with mouse MC38 cells assessed as pathological changes in lung at 50 mg/kg, po treated 5 days after cell inoculation 19 th day by hematoxylin and eosin analysis; format: organism-based; details: in vivo, 360 h, time 15 day
[27] = Toxicity in C57BL/6 mouse allografted with mouse MC38 cells assessed as creatinine (CRE) level in serum at 50 mg/kg, po treated 5 days after cell inoculation 19 th day; format: organism-based; details: in vivo, 360 h, time 15 day
[28] = Toxicity in C57BL/6 mouse allografted with mouse MC38 cells assessed as urea nitrogen (BUN) level in serum at 50 mg/kg, po treated 5 days after cell inoculation 19 th day; format: organism-based; details: in vivo, 360 h, time 15 day

Question: What does the source list for `CCCNNC(=O)c1ccc(CNC(=O)c2cnc(-c3ccc4occc4c3)[nH]2)cc1`?
Answer: Activity (MC-38 [1]): 71.37%; Activity (MC-38 [2]): 8%; Activity (MC-38 [3]): Dose-dependent-effect; Activity (MC-38 [4]): Active; AUC [5]: 1249.2 ng·h/mL; Tmax [6]: 4.8 min; Vd [7]: 2.35 L/kg; Cmax [8]: 1210 ng/mL; MRT last at 12 h [9]: 252 min; Tmax [10]: 52.8 min; inhibition in vivo at 50 mg/kg (MC-38 [11]): 80%; Activity [12]: Non-toxic; Activity (MC-38 [13]): Active; Activity (Mus musculus [14]): 0.84%; Activity (Mus musculus [15]): 0.56%; Activity (Mus musculus [16]): 0.83%; Activity (Mus musculus [17]): 20.3%; Activity (Mus musculus [18]): 31.6%; Activity (Mus musculus [19]): 11.9%; Activity (Mus musculus [20]): 3.11%; Activity (Mus musculus [21]): 7.83%; Activity (Mus musculus [22]): Active; Activity (MC-38 [23]): Active; Activity (MC-38 [24]): Active; Activity [25]: Non-toxic; Activity [26]: Non-toxic; Activity [27]: Non-toxic; Activity [28]: Non-toxic

Source: ChEMBL document CHEMBL6121046, “Discovery of Novel Hydrazide-Based HDAC3 Inhibitors as Epigenetic Immunomodulators for Cancer Immunotherapy” (J Med Chem, 2025)
